Reference: PubChem BioAssay (NCI)
Where “and” joins values, the source holds several entries; their conditions need not be identical. Identical values can stand only once.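 These data come from cells grown in 96-well plates and exposed to compound for 48 hours at five concentrations. GI50 = concentration required for 50% inhibition of growth. TGI marks complete inhibition of growth.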 *1 amine or outer side, *2 acyl side, *3 side chain or, on linkers, in order; H or OH if unused. Where a SMILES comes first, the peptide text is derived from it. Bridges are numbered along the chain shown (N, C = ends). Roman numbers before positions name the chains, in order. [ ]: non-standard residue; d: D form. Actinocin(1to9) = Cc1c2oc3c(C)ccc(C(=O)[*:2])c3nc-2c(C(=O)[*:1])c(N)c1=O; NMeV = CN[CH](C(=O)O)C(C)C; Sar = CNCC(=O)O

What was measured:
Assay in all cases: growth of human tumour cells (NCI), 48 h
LOX IMVI melanoma = system: LOX IMVI melanoma
SK-MEL-28 melanoma = system: SK-MEL-28 melanoma
SK-OV-3 ovarian = system: SK-OV-3 ovarian
NCI-H522 lung = system: NCI-H522 lung
A549 NSCLC = system: A549 NSCLC
EKVX NSCLC = system: EKVX NSCLC
RPMI-8226 leukemia = system: RPMI-8226 leukemia
RXF 393 renal = system: RXF 393 renal
HOP-62 NSCLC = system: HOP-62 NSCLC
U251 CNS = system: U251 CNS
MALME-3M melanoma = system: MALME-3M melanoma
OVCAR-5 ovarian = system: OVCAR-5 ovarian
NCI/ADR-RES ovarian = system: NCI/ADR-RES ovarian
MCF7 breast = system: MCF7 breast
PC-3 prostate = system: PC-3 prostate
MDA-MB-435 = system: MDA-MB-435
MDA-MB-231 breast = system: MDA-MB-231 breast

| Compound | TGI (LOX IMVI melanoma) [µM] | TGI (SK-MEL-28 melanoma) [µM] | TGI (SK-OV-3 ovarian) [µM] | TGI (NCI-H522 lung) | TGI (A549 NSCLC) [µM] | TGI (EKVX NSCLC) | TGI (RPMI-8226 leukemia) [µM] | TGI (RXF 393 renal) [µM] | TGI (HOP-62 NSCLC) | TGI (U251 CNS) [µM] | TGI (MALME-3M melanoma) [µM] | TGI (OVCAR-5 ovarian) | TGI (NCI/ADR-RES ovarian) [µM] | TGI (MCF7 breast) [µM] | TGI (PC-3 prostate) | TGI (MDA-MB-435) [µM] | TGI (MDA-MB-231 breast) [µM] | GI50 (EKVX NSCLC) [µM] | GI50 (OVCAR-5 ovarian) [µM] |
| --- | --- | --- | --- | --- | --- | --- | --- | --- | --- | --- | --- | --- | --- | --- | --- | --- | --- | --- | --- |
| CCCCN(CCCC)CC(C(=O)Nc1ccc([N+](=O)[O-])cc1[N+](=O)[O-])/C(C)=N\NC(=O)c1ccncc1 (centres undefined) | > 100 | > 100 | > 100 | > 100 µM | > 100 | > 100 µM | > 100 | > 100 | > 100 µM | > 100 | > 100 | > 100 µM |  |  |  |  |  |  |  |
| CCN(CC)CCC(=O)c1ccc(Cl)c(Cl)c1 | 30.1 | 30.5 | > 100 | 32.8 µM | > 100 | > 100 µM | > 100 | 25.3 | > 100 µM | > 100 | 41.7 | > 100 µM | > 100 | 28.8 | > 100 µM | 30.8 |  |  |  |
| O=C(c1ccc(Cl)c(Cl)c1)N(C(=S)OC12CC3CC(CC(C3)C1)C2)c1ccccc1 |  | > 100 | > 100 | 41.7 µM | > 100 | 72.5 µM |  | > 100 | > 100 µM | > 100 | > 100 | > 100 µM | > 100 | > 100 | > 100 µM | > 100 | > 100 |  |  |
| COc1ccc(CC2NC(=O)C(NC(=O)c3c4nc5c(C(=O)NC6C(=O)NC(Cc7ccc(OC)cc7)C(=O)N7CCCC7C(=O)N(C)CC(=O)N(C)C(C(C)C)C(=O)OC6C)ccc(C)c5oc-4c(C)c(=O)c3N)C(C)OC(=O)C(C(C)C)N(C)C(=O)CN(C)C(=O)C3CCCN3C2=O)cc1 (centres undefined) (I: TY(Me)P[Sar][NMeV] / II: TY(Me)P[Sar][NMeV]; ester I:1-I:C, II:1-II:C; linker I:N-II:N via Actinocin(1to9); configuration not given here) | 0.0144 |  | 12.6 | 0.0234 µM and 0.0235 µM |  | 3.27 µM and 0.862 µM |  | 0.0203 | 0.0405 µM and 0.236 µM |  | 0.0374 | 0.419 µM and 0.67 µM |  |  | 0.355 µM and 0.212 µM | 0.0265 | 0.731 | 0.0514 | 0.0302 |
| NN/C(=N\S(=O)(=O)c1cc(S(=O)(=O)c2ccccc2)cs1)Nc1ccc(Cl)cc1 | 54.9 | > 100 | > 100 | 41.3 µM | > 100 | 55.7 µM | > 100 | 53.9 | > 100 µM | 89.6 |  | > 100 µM | > 100 | > 100 | 69.7 µM |  | > 100 |  |  |
| COc1cc2c(cc1OC)C1CN3CCCC3C(O)C1c1cc(OC)c(OC)cc1-2 (centres undefined) | > 100 | > 100 | > 100 | > 100 µM | > 100 | > 100 µM | > 100 | > 100 | > 100 µM | > 100 | > 100 | > 100 µM | > 100 | > 100 |  | > 100 | > 100 |  |  |
| CC(=O)c1ccc(NC(=O)C(=O)CC(=O)c2sc(-n3nc(-c4ccccc4)cc3-c3ccccc3)nc2C)cc1 | > 100 |  | > 100 | > 100 µM | > 100 | > 100 µM | > 100 | > 100 | > 100 µM | > 100 | > 100 | > 100 µM |  |  |  |  |  |  |  |
| O=c1nc(N2CCCCC2)sc2[nH]c3ccccc3c12 | > 100 | > 100 | > 100 | > 100 µM | > 100 | > 100 µM | > 100 |  | > 100 µM | > 100 | > 100 | 24.8 µM | 25.7 |  | > 100 µM | > 100 | > 100 |  |  |
| c1ccc(C2(c3cc4ccccc4[nH]3)OCCO2)nc1 | > 100 | > 100 | > 100 |  | > 100 | > 100 µM |  | > 100 | > 100 µM | > 100 | > 100 | > 100 µM | > 100 | > 100 | > 100 µM | > 100 | > 100 |  |  |
| CC1=CP(=O)(OC(C)C)C=C(C)C1=C(Cl)Cl (centres undefined) | > 100 | > 100 | 33.4 | 9.03 µM | 97.8 | > 100 µM | > 100 | > 100 | > 100 µM | > 100 | > 100 | > 100 µM |  |  |  |  |  |  |  |
| Cc1c(N)c(C#N)c2n(C)c3ncccc3n2c1=O | > 100 | > 100 | > 100 | > 100 µM | > 100 | > 100 µM | > 100 | > 100 | > 100 µM | > 100 | > 100 |  |  |  |  |  |  |  |  |
| COC(=O)C(Cc1c(-c2[nH]c3ccccc3c2CC(NC(C)=O)C(=O)OC)[nH]c2ccccc12)NC(C)=O (centres undefined) | > 100 | > 100 | > 100 | > 100 µM | > 100 | > 100 µM | > 100 | > 100 | > 100 µM | > 100 | > 100 | > 100 µM | > 100 |  | > 100 µM | > 100 | > 100 |  |  |
| CN(C)CCNc1ncnc2nc(-c3ccccc3)c(-c3ccccc3)nc12 | > 100 | > 100 | > 100 | > 100 µM | > 100 | > 100 µM |  | > 100 | > 100 µM | > 100 | > 100 | > 100 µM | > 100 | > 100 | > 100 µM | > 100 | > 100 |  |  |
| CC(/C=C/c1ccccc1)=N\NC(=S)N/N=C(C)/C=C/c1ccccc1 | 28.8 | > 100 | > 100 | 69 µM | > 100 | > 100 µM |  | 40.7 | 57.7 µM | 16.2 | > 100 | > 100 µM | 99.5 | > 100 | > 100 µM | > 100 | 33.9 |  |  |
| COC1(OC)CCCCCCCCC(OC)(OC)CCCCCCCC1 | > 100 | > 100 | > 100 | > 100 µM | > 100 | > 100 µM |  | > 100 | > 100 µM | > 100 | > 100 | > 100 µM | > 100 | > 100 | > 100 µM | > 100 |  |  |  |
